System: A375 multi-cell spheroids with HUVEC/MSC, viability
Assay: Anticancer human tumor A375 cell line growth inhibition [GQUAD];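 further: spheroids exposed to compounds for seven days before readout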
Conditions: for IC50: curve of first compound; for viability, T/C: stronger effect = lower value; active means viability on the fitted dose curve at most 10% of control; inactive means the rest
In short: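 Tumor cells were grown as complex spheroids with HUVEC endothelial cells and mesenchymal stem cells as stroma. G-quadruplex stabilizers were combined with targeted agents over half-log dilutions from near the clinical Cmax, or from 10 microM.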

[1] = second compound 0.0316 µM, first compound 0.0316 µM
[2] = second compound 0.0316 µM, first compound 0.1 µM
[3] = second compound 0.0316 µM, first compound 0.316 µM
[4] = second compound 0.0316 µM, first compound 1 µM
[5] = second compound 0.0316 µM, first compound 3.16 µM
[6] = second compound 0.0316 µM, first compound 10 µM
[7] = second compound 0.1 µM, first compound 0.0316 µM
[8] = second compound 0.1 µM, first compound 0.1 µM
[9] = second compound 0.1 µM, first compound 0.316 µM
[10] = second compound 0.1 µM, first compound 1 µM
[11] = second compound 0.1 µM, first compound 3.16 µM
[12] = second compound 0.1 µM, first compound 10 µM
[13] = second compound 0.316 µM, first compound 0.0316 µM
[14] = second compound 0.316 µM, first compound 0.1 µM
[15] = second compound 0.316 µM, first compound 0.316 µM
[16] = second compound 0.316 µM, first compound 1 µM
[17] = second compound 0.316 µM, first compound 3.16 µM
[18] = second compound 0.316 µM, first compound 10 µM
[19] = second compound 1 µM, first compound 0.0316 µM
[20] = second compound 1 µM, first compound 0.1 µM
[21] = second compound 1 µM, first compound 0.316 µM
[22] = second compound 1 µM, first compound 1 µM
[23] = second compound 1 µM, first compound 3.16 µM
[24] = second compound 1 µM, first compound 10 µM
[25] = second compound 3.16 µM, first compound 0.0316 µM
[26] = second compound 3.16 µM, first compound 0.1 µM
[27] = second compound 3.16 µM, first compound 0.316 µM
[28] = second compound 3.16 µM, first compound 1 µM
[29] = second compound 3.16 µM, first compound 3.16 µM
[30] = second compound 3.16 µM, first compound 10 µM
[31] = second compound 10 µM, first compound 0.0316 µM
[32] = second compound 10 µM, first compound 0.1 µM
[33] = second compound 10 µM, first compound 0.316 µM
[34] = second compound 10 µM, first compound 1 µM
[35] = second compound 10 µM, first compound 3.16 µM
[36] = second compound 10 µM, first compound 10 µM

O=c1[nH]cc(F)c(=O)[nH]1 + Cc1cnc(CNC(=O)c2c(=O)c3ccc(N4CCCN(C)CC4)nc3n3c2sc2ccccc23)cn1
0.675 µM: IC50 (second compound 0.316 µM)
< 0.0316 µM: IC50 (second compound 1 µM) | IC50 (second compound 3.16 µM) | IC50 (second compound 10 µM)
inactive: viability, T/C [1] 98.5% | viability, T/C [2] 105% | viability, T/C [3] 92.4% | viability, T/C [4] 107% | viability, T/C [5] 112% | viability, T/C [6] 96.5% | viability, T/C [7] 75.9% | viability, T/C [8] 67.8% | viability, T/C [9] 82.8% | viability, T/C [10] 81.4% | viability, T/C [11] 88.7% | viability, T/C [12] 63.1% | viability, T/C [13] 56.8% | viability, T/C [14] 51.4% | viability, T/C [15] 50.7% | viability, T/C [16] 49.4% | viability, T/C [17] 48.6% | viability, T/C [18] 45.3% | viability, T/C [19] 44.9% | viability, T/C [20] 41.3% | viability, T/C [21] 47.6% | viability, T/C [22] 51.7% | viability, T/C [23] 45.8% | viability, T/C [24] 37.7% | viability, T/C [25] 40.3% | viability, T/C [26] 33.4% | viability, T/C [27] 34.6% | viability, T/C [28] 36% | viability, T/C [29] 39% | viability, T/C [30] 30.7% | viability, T/C [31] 37.3% | viability, T/C [32] 30% | viability, T/C [33] 32.6% | viability, T/C [34] 33.9% | viability, T/C [35] 30.3% | viability, T/C [36] 29.4%
> 10 µM: IC50 (second compound 0.0316 µM) | IC50 (second compound 0.1 µM)

CC(C)n1c(=O)n(C)c2cnc3cc(F)c(-c4ccc(OCCCN5CCCCC5)nc4)cc3c21 + CN(C)c1ccc(Nc2c3ccc(NC(=O)CCN4CCCC4)cc3nc3cc(NC(=O)CCN4CCCC4)ccc23)cc1
> 10 µM: IC50 (second compound 0.0316 µM) | IC50 (second compound 0.1 µM) | IC50 (second compound 0.316 µM) | IC50 (second compound 1 µM) | IC50 (second compound 3.16 µM)
inactive: viability, T/C [1] 109% | viability, T/C [2] 99.5% | viability, T/C [3] 105% | viability, T/C [4] 106% | viability, T/C [5] 114% | viability, T/C [6] 88.3% | viability, T/C [7] 108% | viability, T/C [8] 106% | viability, T/C [9] 97.9% | viability, T/C [10] 98.5% | viability, T/C [11] 115% | viability, T/C [12] 91.2% | viability, T/C [13] 103% | viability, T/C [14] 97.1% | viability, T/C [15] 103% | viability, T/C [16] 109% | viability, T/C [17] 116% | viability, T/C [18] 78.3% | viability, T/C [19] 103% | viability, T/C [20] 102% | viability, T/C [21] 108% | viability, T/C [22] 108% | viability, T/C [23] 110% | viability, T/C [24] 78% | viability, T/C [25] 97.4% | viability, T/C [26] 98.1% | viability, T/C [27] 104% | viability, T/C [28] 103% | viability, T/C [29] 107% | viability, T/C [30] 59.6% | viability, T/C [31] 102% | viability, T/C [32] 96.4% | viability, T/C [33] 94.2% | viability, T/C [34] 89.4% | viability, T/C [35] 61% | viability, T/C [36] 30.5%
4.83 µM: IC50 (second compound 10 µM)

CCc1c2c(nc3ccc(O)cc13)-c1cc3c(c(=O)n1C2)COC(=O)[C@]3(O)CC + Cc1cnc(CNC(=O)c2c(=O)c3ccc(N4CCCN(C)CC4)nc3n3c2sc2ccccc23)cn1
< 0.000999 µM: IC50 (second compound 0.0316 µM) | IC50 (second compound 0.1 µM) | IC50 (second compound 0.316 µM) | IC50 (second compound 1 µM) | IC50 (second compound 3.16 µM) | IC50 (second compound 10 µM)
inactive: viability, T/C (second compound 0.0316 µM, first compound 0.000999 µM) 33.5% | viability, T/C (second compound 0.0316 µM, first compound 0.00316 µM) 15.6% | viability, T/C (second compound 0.0316 µM, first compound 0.00999 µM) 15.1% | viability, T/C (second compound 0.1 µM, first compound 0.000999 µM) 26.9% | viability, T/C (second compound 0.1 µM, first compound 0.00316 µM) 14.8% | viability, T/C (second compound 0.1 µM, first compound 0.00999 µM) 15.6% | viability, T/C [7] 15.2% | viability, T/C (second compound 0.316 µM, first compound 0.000999 µM) 26.3% | viability, T/C (second compound 0.316 µM, first compound 0.00316 µM) 17.1% | viability, T/C (second compound 0.316 µM, first compound 0.00999 µM) 14.8% | viability, T/C (second compound 1 µM, first compound 0.000999 µM) 22% | viability, T/C (second compound 1 µM, first compound 0.00316 µM) 15.4% | viability, T/C (second compound 1 µM, first compound 0.00999 µM) 14.2% | viability, T/C (second compound 3.16 µM, first compound 0.000999 µM) 19.4% | viability, T/C (second compound 3.16 µM, first compound 0.00316 µM) 15.9% | viability, T/C (second compound 3.16 µM, first compound 0.00999 µM) 14.4% | viability, T/C (second compound 10 µM, first compound 0.000999 µM) 18.4% | viability, T/C (second compound 10 µM, first compound 0.00316 µM) 16% | viability, T/C (second compound 10 µM, first compound 0.00999 µM) 14.6%
active: viability, T/C [1] 13.5% | viability, T/C (second compound 0.0316 µM, first compound 0.0999 µM) 5.18% | viability, T/C [3] 0.45% | viability, T/C (second compound 0.1 µM, first compound 0.0999 µM) 5.86% | viability, T/C [9] 0.41% | viability, T/C [13] 11.9% | viability, T/C (second compound 0.316 µM, first compound 0.0999 µM) 4.76% | viability, T/C [15] 0.14% | viability, T/C [19] 10.1% | viability, T/C (second compound 1 µM, first compound 0.0999 µM) 4.05% | viability, T/C [21] 0.08% | viability, T/C [25] 9.47% | viability, T/C (second compound 3.16 µM, first compound 0.0999 µM) 0.08% | viability, T/C [27] 0.1% | viability, T/C [31] 7.32% | viability, T/C (second compound 10 µM, first compound 0.0999 µM) 0.15% | viability, T/C [33] 0.15%

O=C(c1cc(Cc2n[nH]c(=O)c3ccccc23)ccc1F)N1CCN(C(=O)C2CC2)CC1 + Cc1[nH]c2ccc(F)cc2c1-c1nc2c3cccnc3c3ncccc3c2[nH]1
> 10 µM: IC50 (second compound 0.0316 µM) | IC50 (second compound 0.1 µM) | IC50 (second compound 0.316 µM) | IC50 (second compound 1 µM) | IC50 (second compound 3.16 µM) | IC50 (second compound 10 µM)
inactive: viability, T/C [1] 100% | viability, T/C [2] 88.9% | viability, T/C [3] 86.7% | viability, T/C [4] 102% | viability, T/C [5] 110% | viability, T/C [6] 80.6% | viability, T/C [7] 101% | viability, T/C [8] 97.4% | viability, T/C [9] 86.7% | viability, T/C [10] 103% | viability, T/C [11] 96.1% | viability, T/C [12] 91.5% | viability, T/C [13] 92.2% | viability, T/C [14] 105% | viability, T/C [15] 105% | viability, T/C [16] 94.8% | viability, T/C [17] 111% | viability, T/C [18] 83% | viability, T/C [19] 96.2% | viability, T/C [20] 95.5% | viability, T/C [21] 102% | viability, T/C [22] 102% | viability, T/C [23] 117% | viability, T/C [24] 74.7% | viability, T/C [25] 80.5% | viability, T/C [26] 78.7% | viability, T/C [27] 84.3% | viability, T/C [28] 73.4% | viability, T/C [29] 74.7% | viability, T/C [30] 61.6% | viability, T/C [31] 94.1% | viability, T/C [32] 90.5% | viability, T/C [33] 105% | viability, T/C [34] 90.8% | viability, T/C [35] 91.3% | viability, T/C [36] 72.1%
